Experimental data reported in patent US20240398805A1, “QUINAZOLINE DERIVED COMPOUNDS AS EGFR INHIBITORS AND THEIR USES THEREOF” (ACCUTAR BIOTECHNOLOGY INC., priority 2021, published 2024).

Experiments:
Assay type in all cases: cell-based
[1] = test system: HCC827 cells; assay: Cell growth inhibition (CellTiter-Glo, 3 days) in HCC827; conditions: Homo sapiens, 72 h, 3 days after administration
Method in brief: (§1)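 Growth inhibition was scored by CellTiter-Glo luminescence after 3-day compound exposure at various concentrations. Cells were plated at 5000/well the day before treatment: A431 in DMEM and HCC827 in RPMI, each with 10% FBS.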

[2] = test system: HCC827-SVD cells (human EGFR exon 20 insertion mutant D770_N771 insSVD); assay: Cell growth inhibition (CellTiter-Glo, 3 days) in HCC827-SVD; conditions: 72 h, 3 days after administration
Method in brief: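 HCC827 cells carrying lentiviral codon-optimized EGFR D770_N771 insSVD, with endogenous EGFR knocked out by CRISPR (single clone), seeded at 5000 cells/well in RPMI with 10% FBS. Viability read by CellTiter-Glo luminescence.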

[3] = test system: HCC827-ASV cells (human EGFR exon 20 insertion mutant A769_D770insASV); assay: Cell growth inhibition (CellTiter-Glo, 3 days) in HCC827-ASV; conditions: 72 h, 3 days after administration
Method in brief: (§2)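 Growth inhibition used a CellTiter-Glo luminescence read-out after 3 days of compound exposure at various concentrations. Cells were plated the day before at 5000/well in RPMI plus 10% FBS. The lines are HCC827 transduced by lentivirus with codon-optimized EGFR ASV or ERBB2 YVMA exon 20 insertions.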

[4] = test system: HCC827-YVMA cells (human ERBB2 exon20 insertion mutant A775_G776ins YVMA); assay: Cell growth inhibition (CellTiter-Glo, 3 days) in HCC827-YVMA; conditions: 72 h, 3 days after administration
Method in brief: as §2

[5] = test system: A431 cells; assay: Cell growth inhibition (CellTiter-Glo, 3 days) in A431; conditions: Homo sapiens, A-431, 72 h, 3 days after administration
Method in brief: as §1

SMILES	GI50 [1] [µM]	GI50 [2] [µM]	GI50 [3] [µM]	GI50 [4] [µM]	GI50 [5] [µM]
C=CC(=O)N1CCC(Nc2cc3c(Nc4ccc(Oc5ccnc(-c6nc(C)c(C)s6)c5)cc4F)ncnc3cc2OC)CC1 [Example 176, 1-(4-((4-((4-((2-(4,5-dimethylthiazol-2-yl)pyridin-4-yl)oxy)-2-fluorophenyl)amino)-7-methoxyquinazolin-6-yl)amino)piperidin-1-yl)prop-2-en-1-one]	0.1 to 0.3	0.03 to 0.06	< 0.03	< 0.03	0.6 to 1
C=CC(=O)N1CCC(Nc2cc3c(Nc4ccc(Oc5ccnc(-c6nc(C)sc6C)c5)cc4F)ncnc3cc2OC)CC1 [Example 177, 1-(4-((4-((4-((2-(2,5-dimethylthiazol-4-yl)pyridin-4-yl)oxy)-2-fluorophenyl)amino)-7-methoxyquinazolin-6-yl)amino)piperidin-1-yl)prop-2-en-1-one]	0.1 to 0.3	< 0.03	< 0.03	< 0.03	0.3 to 0.6
C=CC(=O)N1CCC(Nc2cc3c(Nc4ccc(Oc5ccnc(N6CCC(N)CC6)c5)cc4F)ncnc3cc2OC)CC1 [Example 178, 1-(4-((4-((4-((2-(4-aminopiperidin-1-yl)pyridin-4-yl)oxy)-2-fluorophenyl)amino)-7-methoxyquinazolin-6-yl)amino)piperidin-1-yl)prop-2-en-1-one]	≥ 1	0.3 to 0.6	0.3 to 0.6	0.3 to 0.6	≥ 1
C=CC(=O)N1CCC(Nc2cc3c(Nc4ccc(Oc5ccnc(N6CCN(C)[C@@H](C)C6)c5)cc4F)ncnc3cc2OC)CC1 [Example 179, (S)-1-(4-((4-((4-((2-(3,4-dimethylpiperazin-1-yl)pyridin-4-yl)oxy)-2-fluorophenyl)amino)-7-methoxyquinazolin-6-yl)amino)piperidin-1-yl)prop-2-en-1-one]	≥ 1	0.06 to 0.1	< 0.03	0.03 to 0.06	≥ 1
C=CC(=O)N1CCC(Nc2cc3c(Nc4ccc(Oc5ccnc(N6CCN(C)[C@H](C)C6)c5)cc4F)ncnc3cc2OC)CC1 [Example 180, (R)-1-(4-((4-((4-((2-(3,4-dimethylpiperazin-1-yl)pyridin-4-yl)oxy)-2-fluorophenyl)amino)-7-methoxyquinazolin-6-yl)amino)piperidin-1-yl)prop-2-en-1-one]	≥ 1	0.03 to 0.06	0.03 to 0.06	0.03 to 0.06	≥ 1
C=CC(=O)N1CCC(Nc2cc3c(Nc4ccc(Oc5ccnc(C(=O)N(C)C)c5)cc4F)ncnc3cc2OC)CC1 [Example 182, 4-(4-((6-((1-acryloylpiperidin-4-yl)amino)-7-methoxyquinazolin-4-yl)amino)-3-fluorophenoxy)-N,N-dimethylpicolinamide]	0.6 to 1	0.6 to 1	0.6 to 1	0.3 to 0.6	≥ 1
C=CC(=O)N1CCC(Nc2cc3c(Nc4ccc(Oc5ccnc(NC6COC6)c5)cc4F)ncnc3cc2OC)CC1 [Example 183, 1-(4-((4-((2-fluoro-4-((2-(oxetan-3-ylamino)pyridin-4-yl)oxy)phenyl)amino)-7-methoxyquinazolin-6-yl)amino)piperidin-1-yl)prop-2-en-1-one]	≥ 1	≥ 1	≥ 1	≥ 1	≥ 1
C=CC(=O)N1CCC(Nc2cc3c(Nc4ccc(Oc5ccnc(NC6CCN(C)CC6)c5)cc4F)ncnc3cc2OC)CC1 [Example 184, 1-(4-((4-((2-fluoro-4-((2-((1-methylpiperidin-4-yl)amino)pyridin-4-yl)oxy)phenyl)amino)-7-methoxyquinazolin-6-yl)amino)piperidin-1-yl)prop-2-en-1-one]	≥ 1	≥ 1	≥ 1	≥ 1	≥ 1
C=CC(=O)N1CCC(Nc2cc3c(Nc4ccc(Oc5ccnc(C6CCN(C)CC6)c5)cc4F)ncnc3cc2OC)CC1 [Example 186, 1-(4-((4-((2-fluoro-4-((2-(1-methylpiperidin-4-yl)pyridin-4-yl)oxy)phenyl)amino)-7-methoxyquinazolin-6-yl)amino)piperidin-1-yl)prop-2-en-1-one]	0.6 to 1	≥ 1	≥ 1	≥ 1	≥ 1
C=CC(=O)N1CCC(Nc2cc3c(Nc4ccc(Oc5ccnc(N6CCN(C(C)C)CC6)c5)cc4F)ncnc3cc2OC)CC1 [Example 187, 1-(4-((4-((2-fluoro-4-((2-(4-isopropylpiperazin-1-yl)pyridin-4-yl)oxy)phenyl)amino)-7-methoxyquinazolin-6-yl)amino)piperidin-1-yl)prop-2-en-1-one]	≥ 1	0.1 to 0.3	0.1 to 0.3	0.3 to 0.6	≥ 1
C=CC(=O)N1CCC(Oc2cc3c(Nc4ccc(Oc5ccnc(N6CC7C(C6)C7(F)F)c5)cc4F)ncnc3cc2OC)CC1 (stereo not drawn) [Example 188, 1-(4-((4-((4-((2-(6,6-difluoro-3-azabicyclo[3.1.0]hexan-3-yl)pyridin-4-yl)oxy)-2-fluorophenyl)amino)-7-methoxyquinazolin-6-yl)oxy)piperidin-1-yl)prop-2-en-1-one]	0.06 to 0.1	< 0.03	< 0.03	0.03 to 0.06	0.1 to 0.3
C=CC(=O)N1CCC(Nc2cc3c(Nc4ccc(Oc5ccnc(N6C[C@H](OC)[C@H](OC)C6)c5)cc4F)ncnc3cc2OC)CC1 [Example 189, 1-(4-((4-((4-((2-((3R,4S)-3,4-dimethoxypyrrolidin-1-yl)pyridin-4-yl)oxy)-2-fluorophenyl)amino)-7-methoxyquinazolin-6-yl)amino)piperidin-1-yl)prop-2-en-1-one]	0.3 to 0.6	< 0.03	< 0.03	< 0.03	≥ 1
C=CC(=O)N1CCC(Nc2cc3c(Nc4ccc(Oc5ccnc(N6C[C@H]7COC[C@H]7C6)c5)cc4F)ncnc3cc2OC)CC1 [Example 190, 1-(4-((4-((2-fluoro-4-((2-((3aR,6aS)-tetrahydro-1H-furo[3,4-c]pyrrol-5(3H)-yl)pyridin-4-yl)oxy)phenyl)amino)-7-methoxyquinazolin-6-yl)amino)piperidin-1-yl)prop-2-en-1-one]	0.03 to 0.06	< 0.03	< 0.03	< 0.03	0.3 to 0.6
C=CC(=O)N1CCC(Nc2cc3c(Nc4ccc(Oc5ccnc(-c6nc(C)ns6)c5)cc4F)ncnc3cc2OC)CC1 [Example 192, 1-(4-((4-((2-fluoro-4-((2-(3-methyl-1,2,4-thiadiazol-5-yl)pyridin-4-yl)oxy)phenyl)amino)-7-methoxyquinazolin-6-yl)amino)piperidin-1-yl)prop-2-en-1-one]	0.06 to 0.1	< 0.03	< 0.03	< 0.03	0.1 to 0.3
C=CC(=O)N1CCC(Nc2cc3c(Nc4ccc(Oc5ccnc(N6CCC(F)(F)C6)c5)cc4F)ncnc3cc2OC)CC1 [Example 194, 1-(4-((4-((4-((2-(3,3-difluoropyrrolidin-1-yl)pyridin-4-yl)oxy)-2-fluorophenyl)amino)-7-methoxyquinazolin-6-yl)amino)piperidin-1-yl)prop-2-en-1-one]	0.06 to 0.1	< 0.03	< 0.03	< 0.03	0.3 to 0.6
